Experimental data published in US20260256777A1, “DEGRADANT COMPOUND IN A MEDICAMENT” (VISUS THERAPEUTICS, INC., priority 2020, published 2026).

Experiments:
[1] = Forced degradation of combined brimonidine tartrate and carbachol APIs, LC-PDA analysis; assay type: physicochemical; settings: 66 hours
Experimental: Following the procedures shown in Table 9, the two APIs combined were stressed with moisture and heat (Sample A), 0.1 M HCl at room temperature (Sample B), 0.1 M NaOH at room temperature (Sample C), vehicle and heat (Sample D), 1 M HCl at room temperature (Sample E), and 1 M NaOH at room temperature (Sample F) for 66 hours. A drug product vehicle was stressed under heat for 66 hours as a control (Sample G). After the stress treatment was completed, all samples were removed from condition, allowed to cool to room temperatures, then neutralized where appropriate, and brought to a similar concentration level. The samples were capped and shaken until all the materials in each sample were dissolved. Then each sample solution was diluted in the HPLC method diluent used in Example 4, Table 6 and mixed well. For retention time verification purposes, a reference sample solution was also prepared using a carbachol/brimonidine six month accelerated stability sample (Table 8). The brimonidine tartrate analytical concentration for all of the degraded and the reference sample solutions was 0.1 mg/mL.
All of the sample solutions prepared as described in Table 9 were analyzed per the HPLC-PDA method shown in Example 4, Table 6. […] The level of the impurity present in both base-stressed samples is about 0.02% relative to that of the brimonidine peak. The extracted UV spectra for the RRT 0.91 impurity from the carbachol/brimonidine formulation (6 month accelerated stability sample) and the two base-stressed samples are similar for each.
The Phase I forced degradation study confirmed that the RRT 0.91 impurity was formed when the two APIs together were stressed under basic (either 0.1 M NaOH or 1 M NaOH) conditions and at room temperatures. To study temperature impact on the reaction, the two APIs, brimonidine tartrate and carbachol, were combined and stressed under both base and heat (45° C.) conditions simultaneously.
Additionally, to further confirm that the presence of both APIs was needed for the formation of the RRT 0.91 peak, individual API samples were also stressed in the same way. […] After the stress treatment was completed, all samples (H-M) were removed from condition, allowed to cool to room temperatures, neutralized where appropriate, and brought to a similar concentration level. The samples were capped and shaken until all the materials in each flask were dissolved. Then each sample solution was diluted in the HPLC method diluent (Example 4, Table 6) and mixed well.
All the base and heat-stressed sample solutions prepared as described in Table 10 were analyzed by LC-PDA analysis per the method shown in Example 4, Table 6. […] This further confirmed that the RRT 0.91 impurity was a reaction product of the two APIs.

[2] = Forced degradation samples analysed by prototype HPLC method; assay type: physicochemical
Experimental: A new prototype HPLC method has been developed to study early eluting peaks not well separated by the method described in Example 3, Table 3. The method better separates early eluting brimonidine-related impurities. All sample solutions from the Phase I and II stress studies were analyzed with the prototype method. […] This was consistent with the analysis results per the method described in Example 4, Table 6. Another unknown impurity, impurity B, was also observed in the chromatogram for the 0.1 M NaOH and heat-stressed combined API sample at RT 3.44 min with a level of ~0.05% relative to the brimonidine peak area. The extracted UV spectrum for impurity B is consistent with the UV Spectrum previously observed in stability samples.

**Q.** With NC(=O)N1CCN=C1Nc1ccc2nccnc2c1Br [RRT 0.91 Impurity, 2-((5-bromoquinoxalin-6-yl)amino)-4,5-dihydro-1H-imidazole-1-carboxamide] as the compound, how does the “Relative % Peak Area for RRT 0.91 Impurity (Versus Peak Area of Brimonidine)” value (“Relative % Peak Area” for short) ([1]; 0.1M NaOH, 45° C.) read?
**A.** 0.15%

**Q.** What about the “Relative % Peak Area” value ([1]; 0.1M NaOH, room temperature) of the same compound?
**A.** 0.02%

**Q.** What about the “Relative % Peak Area” value ([1]; 0.1M NaOH, room temperature, listed as RRT 0.91 impurity) of the same compound?
**A.** about 0.02%

**Q.** And the “Relative % Peak Area” value ([1]; 1M NaOH, 45° C.)?
**A.** 0.03%

**Q.** What about the “Relative % Peak Area” value ([1]; 1M NaOH, room temperature) of the same compound?
**A.** 0.02%

**Q.** And the “Relative % Peak Area” value ([1]; 1M NaOH, room temperature, listed as RRT 0.91 impurity)?
**A.** about 0.02%

**Q.** Which results are given for NC(=O)NCCNC(=O)Nc1ccc2nccnc2c1Br [Impurity B, 1-(5-bromoquinoxalin-6-yl)-3-(2-ureidoethyl)urea]?
**A.** impurity B level relative to the brimonidine peak area ([2]; 0.1 M NaOH and heat-stressed combined API sample): ~ 0.05%; impurity B level ([2]; other base-stressed combined APIs): very low levels
